Laboratory results taken from patent US4176009A, “Method of measuring collagenase activity” (Ajinomoto Co., Inc., priority 1976, dated 1979).
Non-standard residues stand in square brackets, D forms with d. Residues, ends and D or L forms follow the SMILES beside them. *: point of attachment. Dnp = O=[N+]([O-])c1ccc(*)c([N+](=O)[O-])c1

Assays:
[1] = system: purified collagenase; test: Rate of hydrolysis of DNP-peptide derivatives by purified collagenase (Example 15); assay type: biochemical, tadpole; settings: 5×10^-4 M peptide, purified collagenase 6.2 U/ml, 37° C., pH 7.5; average of three experiments; extraction with ethyl acetate (* compounds: ethyl acetate-n-butanol 1:0.15)
Description: (§1) Purified collagenase used in Examples was prepared from cultured media of tadpole skin explants as described in Biochem. Biophs. Acta, 263 564(1972), and non-specific peptidases were prepared by subjecting 5 ml of fresh adult human serum to chromatography on a calibrated Sephadex G-200 superfine gel column equilibrated with 0.05 M Tris-HCl buffer, pH 7.5, containing 0.15 M NaCl and 5 mM CaCl2, and gathering the effluent fractions corresponding to molecular weights of 100,000-180,000.
(§2) Various DNP-peptide derivatives were dissolved in 0.05 M Tris-HCl buffer, pH 7.5, containing 0.15 M NaCl, 5 mM CaCl2 and 0.02% bovine serum albumin to make a concentration of 5×10^-4 M. 0.1 ml Each of the peptide derivative solutions was mixed with an equal volume of purified collagenase (6.2 U/ml) or non-specific peptidases and incubated for various periods at 37° C. After stopping the enzyme reaction by adding 0.5 ml of 1 M HCl, the DNP-peptide fragments released were extracted by vigorous shaking with 1 ml of ethylacetate or ethyl acetate-n-butanol (1:0.15, V/V), and worked up as in Example 12.

[2] = system: non-specific peptidases; test: Time course of hydrolysis of substrate solution(a) by non-specific peptidase (Example 13); assay type: biochemical, human
Description: as §1
(§3) 0.9 ml Each of the substrate solutions was diluted with 0.88 ml of 0.05M tris-HCl buffer, pH 7.5, containing 0.15 M NaCl, and 5 m MCaCl2. The resulting solution was mixed with 0.02 ml of purified collagenase, and incubated. 0.2 ml Aliquots of the reaction mixture were taken out at 0, 10, 20, 40, 60 and 120 minutes, and mixed with 0.5 ml of 1M hydrochloric acid for stopping the enzyme reaction.
(§4) The DNP-peptide fragments released were extracted by vigorous shaking with 1 ml of ethyl acetate-n-butanol (1:0.15, V/V) followed by centrifugation at 3,000-5,000 rpm and room temperature for 10 minutes to separate two layers completely. The degree of hydrolysis was determined by measuring the absorbance of the organic layer at 365 nm.
1 ml of the substrate solution(a) prepared in Example 12 was mixed with 1.0 ml of non-specific peptidase, and the resulting solution was worked up as in Example 12.

[3] = system: collagenase in synovial fluids; test: Hydrolysis of substrate solutions by synovial fluids from patients; collagenase activity (Example 14); assay type: biochemical, human; settings: for OD365/0.1 ml ohr: 0 hr; for OD365/0.1 ml 2hr: 2 hr at 37° C.; for OD365/0.1 ml increment: 2 hr minus 0 hr
Description: as §4
0.2 ml Each of the substrate (solutions(a) and (b) prepared in Example 12 was mixed with 0.1 ml of synovial fluids from patients with osteoarthritis and rheumatoid arthritis, and incubated for 2 hours at 37° C. After stopping the enzyme reaction by adding 0.5 ml of 1 M hydrochloric acid, the DNP-peptide fragments released were extracted by vigorous shaking with 2 ml of ethyl acetate-n-butanol (1:0.15, V/V), and worked up as in Example 12 to obtain the collagenase activities.

[4] = system: purified collagenase; test: Time course of hydrolysis of substrate solutions by purified collagenase (Example 12); assay type: biochemical, tadpole; settings: for 00365 (absorbance of the organic layer at 365 nm): pH 7.5
Description: as §1
DNP-Pro-Gln-Gly-Ile-Ala-Gly-Gln-D-Arg-OH.CH3 COOH.H2 O (4.96 mg) was neutralized with 0.1N sodium hydroxide, and dissolved in 0.05M tris-HCl buffer, pH 7.5, containing 0.15 M NaCl and 5 m MCaCl2 to make 10 ml of the substrate solution (a) having a concentration of 5×10^-4 M. The substrate solution (b) was also prepared similarly by using DNP-Gln-Gly-Ile-Ala-Gly-Gln-D-Arg-OH.CH3 COOH.H2 O (4.48 mg).
as §3, §4

[5] = system: non-specific peptidases; test: Rate of hydrolysis of DNP-peptide derivatives by non-specific peptidases (Example 15); assay type: biochemical, human; settings: 5×10^-4 M peptide, 37° C., pH 7.5; average of three experiments; extraction with ethyl acetate (* compounds: ethyl acetate-n-butanol 1:0.15)
Description: as §1, §2

[6] = synovial fluid of case five, RA
[7] = synovial fluid of case four, OA
[8] = synovial fluid of case three, RA

CC[C@H](C)[C@H](NC(=O)CNC(=O)[C@H](CCC(N)=O)NC(=O)[C@@H]1CCCN1c1ccc([N+](=O)[O-])cc1[N+](=O)[O-])C(=O)N[C@@H](C)C(=O)NCC(=O)N[C@@H](CCC(N)=O)C(=O)N[C@H](CCCNC(=N)N)C(=O)O [Example 1, DNP-Pro-Gln-Gly-Ile-Ala-Gly-Gln-D-Arg-OH] (Dnp-PQGIAGQ[dR]-OH)
Rate of hydrolysis by Collagenase [1]: 0.093 OD365/hr | 00365 (absorbance of the organic layer at 365 nm) ([2]; incubation time 0 min): 0.053 | 00365 (absorbance of the organic layer at 365 nm) ([2]; incubation time 10 min): 0.054 | increment of 00365 ([2]; incubation time 10 min): 0.001 | 00365 (absorbance of the organic layer at 365 nm) ([2]; incubation time 20 min): 0.056 | increment of 00365 ([2]; incubation time 20 min): 0.002 | 00365 (absorbance of the organic layer at 365 nm) ([2]; incubation time 40 min): 0.058 | increment of 00365 ([2]; incubation time 40 min): 0.004 | 00365 (absorbance of the organic layer at 365 nm) ([2]; incubation time 60 min): 0.060 | increment of 00365 ([2]; incubation time 60 min): 0.007 | 00365 (absorbance of the organic layer at 365 nm) ([2]; incubation time 120 min): 0.063 | increment of 00365 ([2]; incubation time 120 min): 0.010 | OD365/0.1 ml ohr [3, 6]: 0.045 OD365/0.1 ml | OD365/0.1 ml 2hr [3, 6]: 0.591 OD365/0.1 ml | OD365/0.1 ml increment [3, 6]: 0.546 OD365/0.1 ml | OD365/0.1 ml ohr [3, 7]: 0.042 OD365/0.1 ml | OD365/0.1 ml 2hr [3, 7]: 0.045 OD365/0.1 ml | OD365/0.1 ml increment [3, 7]: 0.003 OD365/0.1 ml | OD365/0.1 ml ohr ([3]; synovial fluid of case one, RA): 0.041 OD365/0.1 ml | OD365/0.1 ml 2hr ([3]; synovial fluid of case one, RA): 0.058 OD365/0.1 ml | OD365/0.1 ml increment ([3]; synovial fluid of case one, RA): 0.017 OD365/0.1 ml | OD365/0.1 ml ohr ([3]; synovial fluid of case six, OA): 0.045 OD365/0.1 ml | OD365/0.1 ml 2hr ([3]; synovial fluid of case six, OA): 0.041 OD365/0.1 ml | OD365/0.1 ml increment ([3]; synovial fluid of case six, OA): 0 OD365/0.1 ml | OD365/0.1 ml ohr [3, 8]: 0.049 OD365/0.1 ml | OD365/0.1 ml 2hr [3, 8]: 0.695 OD365/0.1 ml | OD365/0.1 ml increment [3, 8]: 0.646 OD365/0.1 ml | OD365/0.1 ml ohr ([3]; synovial fluid of case two, OA): 0.045 OD365/0.1 ml | OD365/0.1 ml 2hr ([3]; synovial fluid of case two, OA): 0.043 OD365/0.1 ml | 00365 (absorbance of the organic layer at 365 nm) ([4]; incubation time 0 min): 0.033 | increment of 00365 ([4]; incubation time 10 min): 0.018 | 00365 (absorbance of the organic layer at 365 nm) ([4]; incubation time 10 min): 0.051 | increment of 00365 ([4]; incubation time 20 min): 0.018 | 00365 (absorbance of the organic layer at 365 nm) ([4]; incubation time 20 min): 0.071 | increment of 00365 ([4]; incubation time 40 min): 0.079 | 00365 (absorbance of the organic layer at 365 nm) ([4]; incubation time 40 min): 0.112 | increment of 00365 ([4]; incubation time 60 min): 0.107 | 00365 (absorbance of the organic layer at 365 nm) ([4]; incubation time 60 min): 0.140 | increment of 00365 ([4]; incubation time 120 min): 0.184 | 00365 (absorbance of the organic layer at 365 nm) ([4]; incubation time 120 min): 0.217 | Rate of hydrolysis by non-specific peptidases [5]: 0 OD365/hr

CC(C)C[C@H](NC(=O)CNC(=O)[C@H](CCC(N)=O)NC(=O)[C@@H]1CCCN1c1ccc([N+](=O)[O-])cc1[N+](=O)[O-])C(=O)N[C@@H](C)C(=O)NCC(=O)N[C@@H](CCC(N)=O)C(=O)N[C@H](CCCNC(=N)N)C(=O)O [Example 4, DNP-Pro-Gln-Gly-Leu-Ala-Gly-Gln-D-Arg-OH] (Dnp-PQGLAGQ[dR]-OH)
Rate of hydrolysis by Collagenase [1]: 0.243 OD365/hr | Rate of hydrolysis by non-specific peptidases [5]: 0.031 OD365/hr

CC[C@H](C)[C@H](NC(=O)CNC(=O)[C@H](C)NC(=O)[C@@H]1CCCN1c1ccc([N+](=O)[O-])cc1[N+](=O)[O-])C(=O)N[C@@H](C)C(=O)NCC(=O)N[C@@H](CCC(N)=O)C(=O)N[C@H](CCCNC(=N)N)C(=O)O [Example 5, DNP-Pro-Ala-Gly-Ile-Ala-Gly-Gln-D-Arg-OH] (Dnp-PAGIAGQ[dR]-OH)
Rate of hydrolysis by Collagenase [1]: 0.070 OD365/hr | Rate of hydrolysis by non-specific peptidases [5]: 0.010 OD365/hr

CC(C)C[C@H](NC(=O)CNC(=O)[C@H](C)NC(=O)[C@@H]1CCCN1c1ccc([N+](=O)[O-])cc1[N+](=O)[O-])C(=O)N[C@@H](C)C(=O)NCC(=O)N[C@@H](CCC(N)=O)C(=O)N[C@H](CCCNC(=N)N)C(=O)O [Example 6, DNP-Pro-Ala-Gly-Leu-Ala-Gly-Gln-D-Arg-OH] (Dnp-PAGLAGQ[dR]-OH)
Rate of hydrolysis by Collagenase [1]: 0.120 OD365/hr | Rate of hydrolysis by non-specific peptidases [5]: 0.051 OD365/hr
